Tests used:
[1] = tested on: spinal cord of an injured recipient animal; assay: Bone marrow cell implantation at spinal cord injury site with BrdU labelling; format: in vivo, rat; settings: 12 weeks after implantation of bone marrow cells from orally treated donor
Description: In preferred embodiments, the invention relates to regenerating nerve tissue in vivo. Methods of the invention include administering a therapeutically effective dose of a composition of the invention to a first mammal in need of neural regeneration. In some embodiments, a compound of Formula (I) or Formula (II) is administered, preferably orally administered, to a mammal in need of tissue regeneration, preferably neural tissue regeneration. In some embodiments, methods of the invention comprise administering a compound of Formula (I) or Formula (II) to a first mammal, harvesting cells from the first mammal after administration of the compound and subsequently delivering the harvested cells locally at a site where increased neural expression or increased neural regeneration is needed, wherein the injury site can be in the first mammal or in a second mammal. In some embodiments, the compositions of the invention can be administered intralesionally. Preferably, the harvested cells are from any type of stem cell, for example bone marrow cells. For example, bone marrow cells can be collected from a donor animal (e.g., a rat) within two weeks, preferably within three to seven days, after oral administration of N-[4-[(4-fluorophenyl)sulfonyl]phenyl]acetamide in a pharmaceutically acceptable carrier to the donor animal. […]

[2] = tested on: passaged astrocytes; assay: Highly enriched passaged astrocyte cultures, immunostaining; format: cell-based, rat; settings: astrocytes passaged 3 times; untreated controls at a significantly reduced level
Description: The method of the invention is also exemplified by a third embodiment in which astrocytes are passaged 3 times prior to in vitro treatment with the compound and samples derived from the whole cortex were compared to samples enriched for tissue from the subventricular zone.
For some experiments, freshly dissociated cortical cells were plated in poly lysine coated T-75 flasks. Cells were fed twice weekly with DMEM+10% FBS. After reaching confluence, cells were removed from the T-75 flask with typsin/EDTA (Gibco), pelleted and media removed. The cell pellet was resuspended in DMEM+10% FBS and split 1 to 5 into new T-75 flasks. This process was repeated 2 more times. After reaching confluence on the fourth passage, cells were removed from the T-75 flask as describe above and plated on poly lysine coated 24 well cluster plates at a density of 1×10^5 cells per well. Cells were maintained in DMEM+10% FB S until they reached confluence at which point, the media was removed and replaced with NeuralBasal+B27 supplementsN-[4-[(4-fluorophenyl)sulfonyl]phenyl]acetamide was dissolved in 2 hydroxypropyl-β-cyclodextrin and added to cultures at final concentrations ranging from 100 μg/ml to 10 ng/ml. […]

[3] = tested on: mixed embryonic day 18 (E18) rat neural cultures; assay: Embryonic day 18 rat cortical culture, glutamate-killed neurons, immunostaining for neuronal markers; format: cell-based
Description: The method of the invention is exemplified by a first embodiment wherein administration of a single in vitro dose of N-[4-[(4-fluorophenyl)sulfonyl]phenyl]-acetamide, a compound according to Formula (II), to a population of mixed embryonic day 18 (“E18”) rat neural cultures without living neurons results in a protein expression pattern within the culture that is indicative of development of neuronal cells from progenitor cells. The embryonic neural cultures are first subjected to glutamate excitotoxic exposure sufficient to result in neuronal cell death prior to administration of the compound. Cultures obtained from E18 rat embryos are allowed to mature in vitro for 10 days at which time they are treated with […] glutamate to kill the neurons. Eight days later, cultures are treated with a range of doses of the compound N-[4-[(4-fluorophenyl)sulfonyl]phenyl]acetamide from 0.01 μg/ml to 100 μg/ml. In comparing control cultures and drug treated cultures, an antigenic marker for neuronal progenitor cells, e-NCAM (as detected by immunohistochemical methods), is elevated one week after treatment of the culture with N-[4-[(4-fluorophenyl)sulfonyl]phenyl]-acetamide. […] In contrast, few cells in untreated cultures are observed expressing MAP-II immunoreactivity at 3 weeks post-treatment. […] In control cultures, few cells are observed expressing intense MAP-II and beta-tubulin immunoreactivity. […] This expression pattern represents the normal sequence of events as neuronal cells develop from progenitor cells.
CNS tissue was harvested from embryonic day 18 (E-18) rat pups (Taconic Labs) using sterile technique and was stored in ice cold Hank's Balanced Salt Solution (HBSS-Gibco). Brains were removed from the cranium of 10 embryos, and the meninges removed to expose the underlying cortex. Cortex was isolated from the rest of the brain and stored in ice cold HBSS. After all material was collected, the tissue was minced and trypsinized using 0.1% trypsin (Sigma) for 30 minutes at 37° C. Trypsin action was inhibited by adding 0.5 mg/ml soybean trypsin inhibitor (Gibco). Tissue was rinsed with HBSS and triturated using a flame narrowed Pasteur pipette coated with fetal bovine serum (FBS—Media Tech).
Dissociated cells were counted and plated into 24 well cluster plates in DMEM (MediaTech) plus 10% FBS (Media Tech) at a density of 5×10^5 cells per well. Twenty-four well cluster plates were coated with poly-D-lysine prior to adding cells. Cultures were maintained for 10 days in vitro using a 3-4 day feeding schedule where half the media was removed and replaced with fresh media.
On in vitro day (IVD) 10, glutamate (Gibco) (110 μl of 20 mM added to wells that contained 1 ml of media) was add to all wells except control wells to a final concentration 2 mM. Control wells were fed an equal amount of media minus the L-glutamate. Cultures were maintained for an additional 9 days using a 3-4 feeding schedule. On IVD-18, media was removed and replaced with Neurobasal (Gibco)+B27 supplements (Gibco) and L-glutamine (Media Tech). The next day, IVD-19, N-[4-[(4-fluorophenyl)sulfonyl]phenyl]acetamide dissolved in 2-hydroxypropyl-β-cyclodextrin (Sigma) was added to cultures such that the final concentrations of the compound were either 100 μg/ml, 10 μg/ml, 1 μg/ml and 0.1 μg/ml or 10 μg/ml, 1 μg/ml 0.1 μg/ml and 0.01 μg/ml. Two sets of control wells were included in each experiment. One set of glutamate treated wells received an equal dose of 2-hydroxypropyl-β-cyclodextrin but without N-[4-[(4-fluorophenyl)sulfonyl]phenyl]acetamide. […] After it became apparent that the optimal dose was approximately 0.1 μg/ml to 1 μg/ml N-[4-[(4-fluorophenyl)sulfonyl]phenyl]acetamide, the concentration of drug added to the control wells was reduced to 1 μg/ml.
Cultures were maintained for up to an additional 10 weeks. […]

[4] = 4 weeks post treatment, vs control cultures

CC(=O)Nc1ccc(S(=O)(=O)c2ccc(F)cc2)cc1 [N-[4-[(4-fluorophenyl)sulfonyl]phenyl]acetamide]
BrdU incorporation and expression of nestin, beta-tubulin and GFAP in spinal cord tissue [1]: shows incorporation of BrdU in cell nuclei, as well as expression of nestin, beta-tubulin and GFAP
beta-tubulin positive cells with neuronal morphologies [2]: show beta-tubulin positive cells with neuronal morphologies
MAP-II expression ([3]; 3 weeks post treatment, vs untreated cultures): Low levels of MAP-II expression are also detected at 3 weeks post treatment in a large number of cells
MAP-II immunoreactivity [3, 4]: a large number of cells treated with the compound can be observed expressing intense MAP-II and beta-tubulin immunoreactivity
beta-tubulin immunoreactivity [3, 4]: a large number of cells treated with the compound can be observed expressing intense MAP-II and beta-tubulin immunoreactivity
phosphorylated neurofilament protein (NF-PO4) immunoreactivity ([3]; 6 weeks post treatment, vs untreated cultures): can be observed in numerous neurites
e-NCAM expression (immunohistochemical) ([3]; one week after treatment, drug treated vs control cultures, 0.01 μg/ml to 100 μg/ml): elevated
expression of Low affinity Neuron Growth Factor Receptor ([3]; ten weeks post treatment): show expression of the Low affinity Neuron Growth Factor Receptor
beta-tubulin expression ([3]; three weeks post treatment, vs untreated control cultures): elevated levels of beta-tubulin expression are detected in large numbers of cells
